Data published in PubChem BioAssay (NCI).
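96-well plates; 48 h exposure; 5 concentrations. Endpoints by linear interpolation between flanking doses. Not reached: highest tested concentration assigned. Abbreviation: GI50, concentration required for 50% inhibition of growth. TGI is the concentration that stops growth completely.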

Key:
Assay in all cases: growth of human tumour cells (NCI), 48 h
MOLT-4 leukemia = tested on: MOLT-4 leukemia
SK-MEL-2 melanoma = tested on: SK-MEL-2 melanoma
UO-31 renal = tested on: UO-31 renal
SN12C renal = tested on: SN12C renal
DU-145 prostate = tested on: DU-145 prostate
PC-3 prostate = tested on: PC-3 prostate
OVCAR-4 ovarian = tested on: OVCAR-4 ovarian
OVCAR-5 ovarian = tested on: OVCAR-5 ovarian
A549 NSCLC = tested on: A549 NSCLC
SF-295 CNS = tested on: SF-295 CNS
EKVX NSCLC = tested on: EKVX NSCLC
786-0 renal = tested on: 786-0 renal
MCF7 breast = tested on: MCF7 breast
NCI/ADR-RES ovarian = tested on: NCI/ADR-RES ovarian
A498 renal = tested on: A498 renal
NCI-H226 lung = tested on: NCI-H226 lung
CCRF-CEM leukemia = tested on: CCRF-CEM leukemia
HCT-15 colon = tested on: HCT-15 colon
SF-539 CNS = tested on: SF-539 CNS
UACC-62 melanoma = tested on: UACC-62 melanoma
MDA-N = tested on: MDA-N
HL-60(TB) leukemia = tested on: HL-60(TB) leukemia
UACC-257 melanoma = tested on: UACC-257 melanoma
KM12 colon = tested on: KM12 colon
TK-10 renal = tested on: TK-10 renal
MALME-3M melanoma = tested on: MALME-3M melanoma
RXF 393 renal = tested on: RXF 393 renal
SNB-75 CNS = tested on: SNB-75 CNS
HCT-116 colon = tested on: HCT-116 colon
SK-MEL-5 melanoma = tested on: SK-MEL-5 melanoma
ACHN renal = tested on: ACHN renal
T-47D breast = tested on: T-47D breast
SNB-19 CNS = tested on: SNB-19 CNS
LOX IMVI melanoma = tested on: LOX IMVI melanoma
MDA-MB-231 breast = tested on: MDA-MB-231 breast
U251 CNS = tested on: U251 CNS
NCI-H23 lung = tested on: NCI-H23 lung
HCC-2998 colon = tested on: HCC-2998 colon
MDA-MB-435 = tested on: MDA-MB-435
HT29 colon = tested on: HT29 colon
SK-MEL-28 melanoma = tested on: SK-MEL-28 melanoma
OVCAR-3 ovarian = tested on: OVCAR-3 ovarian
K-562 leukemia = tested on: K-562 leukemia
NCI-H522 lung = tested on: NCI-H522 lung
CAKI-1 renal = tested on: CAKI-1 renal
HOP-62 NSCLC = tested on: HOP-62 NSCLC
HOP-92 NSCLC = tested on: HOP-92 NSCLC
COLO 205 colon = tested on: COLO 205 colon
SW-620 colon = tested on: SW-620 colon
OVCAR-8 ovarian = tested on: OVCAR-8 ovarian
IGROV1 ovarian = tested on: IGROV1 ovarian
RPMI-8226 leukemia = tested on: RPMI-8226 leukemia
SK-OV-3 ovarian = tested on: SK-OV-3 ovarian
M14 melanoma = tested on: M14 melanoma
NCI-H460 lung = tested on: NCI-H460 lung
SF-268 CNS = tested on: SF-268 CNS
SR leukemia = tested on: SR leukemia
HS 578T breast = tested on: HS 578T breast

## [O-][N+]1=C(c2ccccc2)/C(=C2/C(c3ccccc3)=[N+]([O-])c3ccccc32)Cc2ccccc21
MOLT-4 leukemia
  TGI: 54.3 µM
SK-MEL-2 melanoma
  TGI: 36.6 µM
UO-31 renal
  TGI: 28.5 µM
SN12C renal
  TGI: 32.4 µM
DU-145 prostate
  TGI: 63.8 µM
PC-3 prostate
  TGI: 34.9 µM
OVCAR-4 ovarian
  TGI: 38.9 µM
OVCAR-5 ovarian
  TGI: > 100 µM
A549 NSCLC
  TGI: 35.2 µM
SF-295 CNS
  TGI: 42.9 µM
EKVX NSCLC
  TGI: 48.5 µM
786-0 renal
  TGI: 34.9 µM
MCF7 breast
  TGI: > 100 µM
NCI/ADR-RES ovarian
  TGI: 34.4 µM
A498 renal
  TGI: 21.1 µM
NCI-H226 lung
  TGI: 42.2 µM
CCRF-CEM leukemia
  TGI: 60.1 µM
HCT-15 colon
  TGI: 36.7 µM
SF-539 CNS
  TGI: 56.4 µM
UACC-62 melanoma
  TGI: 28.7 µM
MDA-N
  TGI: 31.7 µM
HL-60(TB) leukemia
  TGI: > 100 µM
UACC-257 melanoma
  TGI: 40.9 µM
KM12 colon
  TGI: 33.9 µM
TK-10 renal
  TGI: 49.2 µM
MALME-3M melanoma
  TGI: 40.8 µM
RXF 393 renal
  TGI: 53.1 µM
SNB-75 CNS
  TGI: 47.1 µM
HCT-116 colon
  TGI: 31.4 µM
SK-MEL-5 melanoma
  TGI: 35.4 µM
ACHN renal
  TGI: 50.6 µM
T-47D breast
  TGI: 45.8 µM
SNB-19 CNS
  TGI: 44.3 µM
LOX IMVI melanoma
  TGI: 34.5 µM
MDA-MB-231 breast
  TGI: 33.5 µM
U251 CNS
  TGI: 38.7 µM
NCI-H23 lung
  TGI: 34.7 µM
HCC-2998 colon
  TGI: 29.5 µM
MDA-MB-435
  TGI: 55.1 µM
HT29 colon
  TGI: 35.9 µM
SK-MEL-28 melanoma
  TGI: 46.2 µM
OVCAR-3 ovarian
  TGI: 38.1 µM
K-562 leukemia
  TGI: 58.1 µM
NCI-H522 lung
  TGI: 30.5 µM
CAKI-1 renal
  TGI: 47.4 µM
HOP-62 NSCLC
  TGI: > 100 µM
HOP-92 NSCLC
  TGI: 32.9 µM
COLO 205 colon
  TGI: 34.7 µM
SW-620 colon
  TGI: 59.2 µM
OVCAR-8 ovarian
  TGI: 35.6 µM
IGROV1 ovarian
  TGI: 35.2 µM
RPMI-8226 leukemia
  TGI: 52 µM
SK-OV-3 ovarian
  TGI: > 100 µM
M14 melanoma
  TGI: 53.7 µM

## CC(=O)OC1CC2C(=O)CC1(C)C2(C)C (stereo not drawn)
MOLT-4 leukemia
  TGI: > 100 µM
SK-MEL-2 melanoma
  TGI: > 100 µM
UO-31 renal
  TGI: > 100 µM
SN12C renal
  TGI: > 100 µM
DU-145 prostate
  TGI: > 100 µM
PC-3 prostate
  TGI: > 100 µM
OVCAR-4 ovarian
  TGI: > 100 µM
OVCAR-5 ovarian
  TGI: > 100 µM
A549 NSCLC
  TGI: > 100 µM
SF-295 CNS
  TGI: > 100 µM
EKVX NSCLC
  TGI: > 100 µM
786-0 renal
  TGI: > 100 µM
MCF7 breast
  TGI: > 100 µM
NCI/ADR-RES ovarian
  TGI: > 100 µM
A498 renal
  TGI: > 100 µM
NCI-H226 lung
  TGI: > 100 µM
CCRF-CEM leukemia
  TGI: > 100 µM
HCT-15 colon
  TGI: > 100 µM
SF-539 CNS
  TGI: > 100 µM
UACC-62 melanoma
  TGI: > 100 µM
MDA-N
  TGI: > 100 µM
HL-60(TB) leukemia
  TGI: > 100 µM
UACC-257 melanoma
  TGI: > 100 µM
NCI-H460 lung
  TGI: > 100 µM
KM12 colon
  TGI: > 100 µM
TK-10 renal
  TGI: > 100 µM
MALME-3M melanoma
  TGI: > 100 µM
RXF 393 renal
  TGI: > 100 µM
SNB-75 CNS
  TGI: > 100 µM
HCT-116 colon
  TGI: > 100 µM
SK-MEL-5 melanoma
  TGI: > 100 µM
ACHN renal
  TGI: > 100 µM
T-47D breast
  TGI: > 100 µM
SNB-19 CNS
  TGI: > 100 µM
LOX IMVI melanoma
  TGI: > 100 µM
MDA-MB-231 breast
  TGI: > 100 µM
SF-268 CNS
  TGI: > 100 µM
U251 CNS
  TGI: > 100 µM
NCI-H23 lung
  TGI: > 100 µM
HCC-2998 colon
  TGI: > 100 µM
SR leukemia
  TGI: > 100 µM
MDA-MB-435
  TGI: > 100 µM
HS 578T breast
  TGI: > 100 µM
HT29 colon
  TGI: > 100 µM
SK-MEL-28 melanoma
  TGI: > 100 µM
OVCAR-3 ovarian
  TGI: > 100 µM
K-562 leukemia
  TGI: > 100 µM
NCI-H522 lung
  TGI: > 100 µM
CAKI-1 renal
  TGI: > 100 µM
HOP-62 NSCLC
  TGI: > 100 µM
HOP-92 NSCLC
  TGI: > 100 µM
COLO 205 colon
  TGI: > 100 µM
SW-620 colon
  TGI: > 100 µM
OVCAR-8 ovarian
  TGI: > 100 µM
IGROV1 ovarian
  GI50: > 100 µM
  TGI: > 100 µM
RPMI-8226 leukemia
  TGI: > 100 µM
SK-OV-3 ovarian
  TGI: > 100 µM
M14 melanoma
  TGI: > 100 µM
